Experimental findings from patent US20200188511A1, “METHODS OF IMPROVING EFFICACY OF ALLERGY VACCINES” (ANERGIS S.A., priority 2018, published 2020) are described below.

B1: Aller T2: COP peptide of 71 amino acids, aa 48-118 of Bet v 1 (SEQ ID 4) (peptide)
chain: NGGPGTIKKISFPEGFPFKYVKDRVDEVDHTNFKYNYSVIEGGPIGDTLEKISNEIKIVATPDGGSILKIS

The experiment deals with Bet v 1-specific IgE. The experiment is described as follows: In vitro IgE binding (IgE ELISA competition and basophil degranulation assays). Further details: species or system human. The procedure:
These experiments are necessary to ensure that the presentation of the peptides in the Bet v1 COP-Virosomes is not associated with the appearance of unexpected binding to pre-existing Bet v 1-specific IgE.
Bet v 1 at 2 μg/ml was coated overnight on 96-well Nunc Maxisorp® immunoplates (Thermo Fisher Scientific Inc., Wohlen, Switzerland). Sera from birch allergic persons were diluted either ten-fold or twenty-fold (depending on Bet v 1 specific IgE content) and added to serial dilutions of either Bet v 1 or COPs virosomes and incubated for 15 minutes on ice. Serial dilutions of Bet v 1 and COPs virosomes ranged from 10^−6 M to 10^−12 M, final concentration. Serum antigen mixtures were then added to the ELISA plates.
On the technique in general: In an ELISA, binding on a coated surface is turned into a signal by an enzyme label.
For “Aller T1: COP peptide of 49 amino acids, aa 2-50 of Bet v 1 (SEQ ID 4) (GVFNYETETTSVIPAARLFKAFILDGDNLFPKVAPQAISSVENIEGNGG)”, the IgE binding entry is “absence of detectable IgE binding”. Take “Aller T3: COP peptide of 55 amino acids, aa 106-160 of Bet v 1 (SEQ ID 4) (VATPDGGSILKISNKYHTKGDHEVKAEQVKASKEMGETLLRAVESYLLAHSDAYN)”: the IgE binding entry is “absence of detectable IgE binding”.

B1: the IgE binding entry is reported as “absence of detectable IgE binding”.
